Data set [1] has as its system human subjects with OHT/POAG. Description: Phase 1b trial: conjunctival hyperemia, safety and tolerability. In kind it is in vivo. As to the method: A randomized, double-masked Phase 1b trial was designed to assess safety, tolerability, and efficacy of a Tie-2 activator (Compound 1) as an adjunctive therapy to prostaglandins for treatment of ocular hypertension (OHT) or primary open angle glaucoma (POAG). The study assessed the effects of increasing concentrations of Compound 1 dosed topically as eye drops (5 mg/mL QD, 15 mg/mL QD, 40 mg/mL QD, and 40 mg/mL BID) in 4 sequential cohorts of 12 subjects, randomized 3:1 to receive Compound 1 or placebo, for 7 days. Conjunctival hyperemia and IOP were assessed at 0 (pre-dose), 2 hours, 4 hours, and 8 hours post-dose on Day −1 (baseline), Day 1 (first day of Compound 1 dosing), and Day 7 (last day of dosing).
In this study, 36 human subjects with OHT/POAG and baseline IOP measurements between 17 and 27 mmHg (inclusive) undergoing once-daily prostaglandin therapy were recruited. Subjects were randomized 3:1 to once-daily, 40 mg/mL Compound 1 (27 subjects), or placebo (9 subjects) in the morning (AM) for 7 days while continuing once-daily prostaglandin therapy in the evening (PM). Compound 1 (40 mg/mL) was a sodium salt formulated in 15% HPβCD and 1% mannitol. The Compound 1 ophthalmic solution was adjusted to a pH of 6.5-7.5 with 1N hydrochloric acid and/or IN sodium hydroxide prior to sterile filtration. Placebo was the same solution as the vehicle for the Compound 1 ophthalmic solution. Each dose of study medication (Compound 1 or placebo) was administered as one drop (30 μL) of dosing solution per eye in each subject. Compound 1 was administered to each eye (except on Day 1 and 2 in Cohort 1 in which only the right eye received Compound 1) by the topical ocular route using a dropper bottle to deliver eye drops. Compound 1 was administered for 7 days as a single morning dose daily. […]
IOP was measured pre-dose (0 hr), 2 hrs, 4 hrs, and 8 hrs post-dose on Day −1, Day 1, and Day 7. […] Visual field testing, conjunctival hyperemia and IOP were also assessed. IOP was assessed by Goldmann applanation tonometry in both eyes at screening, baseline, and during treatment as indicated. […]

For data set [2] the following is noted: cited from earlier work.
Data set [3] deals with patients with mean baseline intraocular pressure of 24-25 mmHg. Particulars: cited from earlier work.

Where two headings read alike, the source gives them in different places. Some results are limits rather than exact numbers.

As for `COC(=O)N[C@@H](Cc1ccccc1)C(=O)N[C@@H](Cc1ccc(NS(=O)(=O)O)cc1)c1csc(-c2cccs2)n1` [Compound 1], the “change in hyperemia over baseline” value in data set [1] (2 hours post-dose) was “small increase”. Moreover, in data set [1] (7 day study), the “tolerability of topical ocular administration” value is “well-tolerated”. Moreover, in data set [1] (post-dose), the “time by which hyperemia returned to baseline levels” value was at most 8 h.
On to `CC(C)OC(=O)CCC/C=C\C[C@@H]1[C@@H](CC[C@@H](O)CCc2ccccc2)[C@H](O)C[C@@H]1O` [Latanoprost, latanoprost], for which the distribution volume in data set [2] (humans) is 0.16 ± 0.02 L/kg. In addition, in data set [2] (intravenous dosing), the “administered dose recovered in the urine” value was about 98%. Further, the “administered dose recovered in the urine” value in data set [2] (topical dosing) is “about 88%”. Moreover, the “reductions in IOP” value in data set [3] (baseline IOP 24-25 mmHg, treated for 6 months, multi-center randomized controlled trials) is given as 6-8 mmHg. Also, in data set [3] (human, in vivo), the “start of reduction of the intraocular pressure after administration” value is 3 to 4 h and the “time at which the maximum effect is reached” value is 8 to 12 h.
Take `O=C(O)CCC/C=C\C[C@@H]1[C@@H](CC[C@@H](O)CCc2ccccc2)[C@H](O)C[C@@H]1O` [acid of latanoprost]: in data set [2] (after both intravenous and topical administration), the “t1/2, elimination from human plasma” value is given as 17 min. The Systemic clearance entry in data set [2] (human) was “approximately 7 mL/min/kg”.

Source of the values: patent publication US20210212998A1, “Combinations of Tie-2 Activators and Prostaglandins and Uses Thereof” (Aerpio Pharmaceuticals, Inc., priority 2020, published 2021).
